Legend:
[1] = Reduction of propionyl-CoA in human hepatocytes derived from propionic acidemia patient at 100 uM pretreated for 30 mins followed by 13C-isoleucine addition and measured after 1 hr by MS/MS analysis relative to control; format: functional, Hepatocyte; design: scale not given: the % may be the effect or the level left; details: time 90 min, 1.5 h
[2] = Reduction of CoASH in human hepatocytes derived from methylmalonic acidemia patient pretreated for 30 mins followed by 13C-isoleucine addition and measured after 1 hr by MS/MS analysis; format: functional, cell-based; details: hepatocyte
[3] = Apparent permeability of the compound across apical to basal side in human Caco-2 cells; format: ADME, cell-based
[4] = Solubility in pH 7-buffered water; format: physicochemical
[5] = Cmax in CD1 mouse at 30 mg/kg, po; format: ADME, organism-based; design: route oral, dose 30 mg/kg; details: in vivo
[6] = Clearance in CD1 mouse at 30 mg/kg, iv; format: ADME, organism-based; details: in vivo
[7] = AUC (0 to infinity) in CD1 mouse at 30 mg/kg, po; format: ADME, organism-based; design: time infinity, route oral, dose 30 mg/kg; details: in vivo
[8] = Oral bioavailability in CD1 mouse at 100 mg/kg; format: ADME, organism-based; details: in vivo
[9] = Oral bioavailability in CD1 mouse at 300 mg/kg; format: ADME, organism-based; details: in vivo
[10] = Half life in Sprague-Dawley rat at 200 mg/kg, po; format: ADME, organism-based; details: in vivo
[11] = Drug level in Gottingen minipig blood at 10 mg/kg, po using radiolabeled compound measured after 96 hrs by quantitative whole-body autoradiography; format: ADME, organism-based, Sus scrofa domesticus; details: pig, in vivo, BLD = below limit of detection
Hepatocyte = experiment: Cytotoxicity against minipig hepatocytes assessed as reduction in cell viability using radiolabeled compound; format: cell-based, Sus scrofa domesticus; details: pig
[12] = Drug metabolism in Sprague-Dawley rat plasma assessed as HST5040-glucuronide metabolite formation at 10 mg/kg administered as single dose by LC/MS analysis; format: ADME, organism-based; details: in vivo
[13] = Drug metabolism in Gottingen minipig plasma assessed as HST5040-carnitine metabolite formation at 10 mg/kg administered as single dose by LC/MS analysis; format: ADME, organism-based, Sus scrofa domesticus; details: pig, in vivo
[14] = Drug metabolism in Gottingen minipig plasma assessed as HST5040-glycine metabolite formation at 10 mg/kg administered as single dose by LC/MS analysis; format: ADME, organism-based, Sus scrofa domesticus; details: pig, in vivo
[15] = Drug metabolism in Sprague-Dawley rat assessed as beta-oxidation by measuring phase1 metabolite formation at 10 mg/kg administered single dose using radiolabeled compound; format: ADME, organism-based; details: in vivo
[16] = target: T1, Broad substrate specificity ATP-binding cassette transporter ABCG2 (Homo sapiens, UniProt Q9UNQ0); experiment: Inhibition of human BCRP assessed as reduction in E3S transport at 24000 uM relative to control
T1 sequence (Q9UNQ0 whole entry): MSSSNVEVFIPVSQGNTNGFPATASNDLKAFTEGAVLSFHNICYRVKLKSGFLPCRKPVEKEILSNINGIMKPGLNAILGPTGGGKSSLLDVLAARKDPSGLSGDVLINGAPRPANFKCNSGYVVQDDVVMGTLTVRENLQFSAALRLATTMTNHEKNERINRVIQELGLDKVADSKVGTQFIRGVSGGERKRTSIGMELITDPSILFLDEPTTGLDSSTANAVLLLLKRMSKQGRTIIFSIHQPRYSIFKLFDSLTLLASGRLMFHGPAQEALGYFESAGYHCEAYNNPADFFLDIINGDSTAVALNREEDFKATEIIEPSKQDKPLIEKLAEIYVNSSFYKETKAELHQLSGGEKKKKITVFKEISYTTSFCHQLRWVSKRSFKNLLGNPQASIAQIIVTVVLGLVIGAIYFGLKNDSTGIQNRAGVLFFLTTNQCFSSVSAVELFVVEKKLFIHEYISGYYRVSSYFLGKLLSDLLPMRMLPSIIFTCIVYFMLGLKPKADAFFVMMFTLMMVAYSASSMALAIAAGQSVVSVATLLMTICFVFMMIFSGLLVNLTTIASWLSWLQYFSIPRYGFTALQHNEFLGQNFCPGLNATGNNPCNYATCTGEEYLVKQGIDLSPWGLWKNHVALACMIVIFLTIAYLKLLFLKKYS

[17] = target: T2, Solute carrier family 22 member 6 (Homo sapiens, UniProt Q4U2R8); experiment: Inhibition of human OAT1 assessed as reduction in OAT1-mediated tenofovir transport
T2 sequence (Q4U2R8 whole entry): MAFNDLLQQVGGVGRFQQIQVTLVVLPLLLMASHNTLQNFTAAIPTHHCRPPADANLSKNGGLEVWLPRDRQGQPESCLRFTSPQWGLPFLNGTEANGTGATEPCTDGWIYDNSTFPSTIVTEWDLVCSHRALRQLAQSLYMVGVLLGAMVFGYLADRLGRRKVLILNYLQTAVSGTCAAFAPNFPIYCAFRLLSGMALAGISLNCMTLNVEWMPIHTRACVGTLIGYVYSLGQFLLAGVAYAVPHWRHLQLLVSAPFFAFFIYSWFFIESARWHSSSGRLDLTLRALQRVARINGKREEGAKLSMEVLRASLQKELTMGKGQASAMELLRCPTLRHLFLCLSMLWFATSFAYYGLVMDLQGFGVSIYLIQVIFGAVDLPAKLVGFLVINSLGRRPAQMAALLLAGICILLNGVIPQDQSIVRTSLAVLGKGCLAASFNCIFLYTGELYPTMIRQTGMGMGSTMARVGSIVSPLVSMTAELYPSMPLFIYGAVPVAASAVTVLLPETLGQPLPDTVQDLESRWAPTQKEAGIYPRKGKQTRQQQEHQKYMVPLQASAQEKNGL

OATP1B1 = target: T3, OATP1B1 (Homo sapiens, UniProt Q9Y6L6); experiment: Inhibition of human OATP1B1 assessed as reduction in OATP1B1- mediated E217betaG transport at 14900 uM relative to control; details: not told, probe E217betaG
T3 sequence (Q9Y6L6 whole entry): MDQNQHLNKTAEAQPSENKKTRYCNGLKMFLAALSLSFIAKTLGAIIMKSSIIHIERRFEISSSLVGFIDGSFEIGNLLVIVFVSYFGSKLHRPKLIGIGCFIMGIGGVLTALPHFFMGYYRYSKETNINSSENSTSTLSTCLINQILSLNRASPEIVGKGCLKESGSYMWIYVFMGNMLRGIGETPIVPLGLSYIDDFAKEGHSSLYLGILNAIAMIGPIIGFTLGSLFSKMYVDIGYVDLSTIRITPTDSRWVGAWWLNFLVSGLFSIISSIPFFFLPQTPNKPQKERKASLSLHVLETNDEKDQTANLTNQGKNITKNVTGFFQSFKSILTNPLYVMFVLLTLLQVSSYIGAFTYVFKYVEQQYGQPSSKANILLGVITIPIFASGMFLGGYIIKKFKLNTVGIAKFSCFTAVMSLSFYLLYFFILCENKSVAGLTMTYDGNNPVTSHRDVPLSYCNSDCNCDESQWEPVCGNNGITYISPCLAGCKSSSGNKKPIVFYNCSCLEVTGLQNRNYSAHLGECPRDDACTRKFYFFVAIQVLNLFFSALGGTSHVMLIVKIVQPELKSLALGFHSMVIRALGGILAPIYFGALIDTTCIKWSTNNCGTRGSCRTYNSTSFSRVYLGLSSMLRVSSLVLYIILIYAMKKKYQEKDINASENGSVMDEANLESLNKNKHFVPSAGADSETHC

[18] = Drug metabolism in minipig assessed as beta-oxidation by measuring phase1 metabolite formation at 10 mg/kg administered single dose using radiolabeled compound; format: ADME, organism-based, Sus scrofa domesticus; details: pig, in vivo

Papp A→B [3]: > 20 ×10⁻⁶ cm/s
solubility [4]: > 50 mg/mL
Cmax [5]: 33700 ng/mL
clearance [6]: 7.28 mL/min/kg
AUC(0-inf) [7]: 37500 ng·h/mL
bioavailability [8]: 93.3%
F [9]: 177.5%
half-life [10]: 2.73 h
Drug uptake [11]: Bld
Drug metabolism [12]: Metabolite_Detected
Drug metabolism [13]: Metabolite_Detected
Drug metabolism [14]: Metabolite_Detected
Drug metabolism [15]: Metabolite_Notdetected
inhibition (INH) [16]: Not Active
IC50 [17]: 3860 µM
inhibition at 14900 µM (OATP1B1): 25.9%
Drug metabolism [18]: Metabolite_Notdetected
Compound: CCC(C)(C)C(=O)O [DIMEBUTIC ACID]
Activity [1]: 87%
EC50 [2]: 14.1 µM
Activity (Hepatocyte): Non-Toxic
